Measurements taken from publication PMC6973020, “Quinoline‐Conjugated Ruthenacarboranes: Toward Hybrid Drugs with a Dual Mode of Action” (Chemmedchem, 2019).

Assays:
MCF‐7 cells = test: DAPI staining, fluorescence microscopy, MCF‐7; assay type: cell-based, human; settings: MCF‐7, 20 μM, 72 h
Procedure: Flow cytometry. For gaining better insights into the mechanisms of action of the ruthenium complexes, MCF‐7 and LN229 cells incubated with an IC50 dose of 3 or 4, were analyzed via flow cytometry. Several staining protocols were carried out in parallel, in independent experiments: i) AnnV/PI for the detection of apoptotic cell death, ii) AO for the detection of acidic vacuoles, iii) ApoStat for checking caspase activation, iv) CFSE for detecting interference with cellular proliferation, and v) DAPI for the detection of morphological signs of apoptosis. Untreated cells or cells treated only with BSA (control) were also measured, as reference for BSA‐free and BSA‐containing drug formulations, respectively. […] Channels FL1 (green emission), FL2 (orange emission) and/or FL3 (dark red emission) were used for fluorescence detection, according to the specific staining agent. Sideward Scatter (SSC) for MCF‐7 cells treated with 4 or BSA−4 was also analyzed, with respect to the control, for detection of shifts of cell granularity. […]
FCS, 2 mM L‐glutamine, 0.01% sodium pyruvate and antibiotics, at 37 °C in a humidified atmosphere with 5% CO2. […] Cells were counted and seeded in 96‐well plates and incubated overnight, as described above. […]
Staining Protocols for Flow Cytometric Analysis. […] Finally, cells were washed in PBS, resuspended in PBS (or AnnV‐binding buffer for AnnV/PI), and analysed. […]

[1] = system: MCF‐7 human breast adenocarcinoma; test: Crystal violet (CV) cell viability assay, MCF‐7; assay type: cell-based; settings: 72 h
From the text: Thus, care must be taken when comparing their biological activities with those of our previous studies, even with the same cell line, because the covalent vs. non‐covalent combination of drugs might imply different mechanisms of action in the cell.44 Here, we studied the in vitro activity of ruthenacarborane 3, i. e. free acid, and its 8‐hydroxyquinolyl (4) and 4‐{(7‐chloroquinolin‐4‐yl)oxy}butanol‐1‐yl (5) esters, against a panel of cancer cell lines (B16 mouse melanoma, A375 human skin melanoma, MCF‐7 human breast adenocarcinoma, LN229 human glioblastoma, U251 human glioma). Human fibroblast cell line MRC‐5, murine microglial cell line BV‐2 as well as peritoneal exudate cells (Mph), were chosen as models for non‐malignant cells. […] On the other side, we wanted to assess the reproducibility of the viability data, under either controlled (with BSA) or uncontrolled (without BSA) conditions, in two sets of independent assays. […] Cells were exposed to 3–5 for 72 h, after which cell viability was determined via 3‐(4,5‐dimethylthiazol‐2‐yl)‐2,5‐diphenyltetrazolium bromide (MTT) and crystal violet (CV) assays, in parallel (Table 2). Cisplatin was also tested as reference.
Preparation of drug solutions. […] Stock solution of cisplatin was prepared in DMF (10 mM) immediately before use. A stock solution of BSA in PBS was prepared at 1.28 mM concentration, and stored at 4 °C in the dark. […] Alternatively, 3 or 4 (DMSO stock solution) were added to the BSA solution in PBS, always with a 10 : 1 molar ratio of BSA to ruthenacarborane. The BSA−ruthenacarborane solutions were incubated 0.5–1 h at room temperature, then diluted with cell culture medium to the desired final concentrations. Final concentrations of 3 and 4 were the same as for the BSA‐free formulation. Final DMSO was 0.02–0.5 vol %.
Colorimetric assays for cellular viability. […] For counting the number of attached (viable) cells, cells were fixed with 4 % (w/v) paraformaldehyde for 10 min at room temperature, and subsequently stained for 15 min with […] crystal violet (CV) solution. Cells were then washed with tap water, dried in air, and the CV dye was dissolved in 33 % (w/v) acetic acid solution. For the detection of mitochondrial respiration, cells were cultivated in MTT staining solution (0.5 mg mL^−1) for approximately 1 h. The dye was then discarded, and the formed formazan (purple) was dissolved in DMSO. The absorbance was measured with an automated microplate reader at λmax 540 nm, with the reference λmax 670 nm. Untreated cells or cells treated only with BSA (control) were also measured, as reference for BSA‐free and BSA‐containing drug formulations, respectively. […] Cell viability is expressed as percentage (%) relative to control (untreated cultures).58 Experiments were run in three independent replicates. […]

Substance | morphological signs of apoptosis (DAPI) (MCF‐7 cells) | IC50 [1]
closo ‐[3‐(η^6‐p‐Cymene)‐1‐(quinolin‐8‐yl‐acetate)‐3,1,2‐RuC2B9H10] [Compound 4] | sparse morphological signs of apoptosis | 16.9 ± 1.1 µM
closo‐ [Compound 3, closo‐ [3‐(η^6‐p‐Cymene)‐1‐(CH2COOH)‐3,1,2‐RuC2B9H10]] | sparse morphological signs of apoptosis | 22.9 ± 1.4 µM
